Reference: PubChem BioAssay (NCI)
Where “and” joins values, the source holds several entries; their conditions need not be identical. Identical values can stand only once.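 Values below derive from 48-hour exposures of cells grown in 96-well plates, with endpoints linearly interpolated between the two concentrations bracketing the appropriate inhibition level. GI50 = concentration required for 50% inhibition of growth. TGI: total growth inhibition.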

Columns and labels:
Test in all cases: growth of human tumour cells (NCI), 48 h
NCI-H23 lung = test system: NCI-H23 lung
IGROV1 ovarian = test system: IGROV1 ovarian
NCI-H460 lung = test system: NCI-H460 lung
MDA-MB-231 breast = test system: MDA-MB-231 breast
ACHN renal = test system: ACHN renal
HCT-15 colon = test system: HCT-15 colon
UO-31 renal = test system: UO-31 renal
OVCAR-5 ovarian = test system: OVCAR-5 ovarian
A549 NSCLC = test system: A549 NSCLC
HCT-116 colon = test system: HCT-116 colon

SMILES	GI50 (NCI-H23 lung)	TGI (NCI-H23 lung)	GI50 (IGROV1 ovarian)	GI50 (NCI-H460 lung)	TGI (NCI-H460 lung)	GI50 (MDA-MB-231 breast)	TGI (MDA-MB-231 breast)	GI50 (ACHN renal)	TGI (ACHN renal)	GI50 (HCT-15 colon)	TGI (HCT-15 colon)	GI50 (UO-31 renal)	TGI (UO-31 renal)	GI50 (OVCAR-5 ovarian)	TGI (OVCAR-5 ovarian)	GI50 (A549 NSCLC)	TGI (A549 NSCLC)	GI50 (HCT-116 colon)	TGI (HCT-116 colon)	TGI (IGROV1 ovarian)
CNc1ncc2cc(-c3cc(NC(=O)NCCC(C)(C)C)c(F)cc3C)c(C)nc2n1	0.147 µM and 0.186 µM	> 42.1 µM	0.179 µM and 0.151 µM	0.473 µM and 0.332 µM	> 100 µM	0.0619 µM and 0.156 µM	1.67 µM and 1.41 µM	0.198 µM and 0.262 µM	> 24.6 µM	0.407 µM and 0.429 µM	> 64.8 µM	0.143 µM and 0.117 µM	> 67.7 µM	0.0761 µM and 0.083 µM	> 100 µM	0.754 µM and 0.598 µM	> 100 µM	0.0805 µM and 0.0858 µM	11.8 µM and > 10 µM	–
N=C1/C(=C2\Nc3ccccc3S2)CC(=O)N1c1ccc(SC(F)F)cc1	18.7 µM	> 100 µM	5.07 µM	0.81 µM	30.9 µM	24.6 µM	> 100 µM	6.98 µM	> 100 µM	0.347 µM	> 100 µM	7.38 µM	> 100 µM	8.88 µM	79.4 µM	3.75 µM	> 100 µM	8.89 µM	> 100 µM	> 100 µM
OCc1ccc(N(Cc2ccc(F)cc2)CC2CCC2)cc1Cl	10.7 µM	24.7 µM	0.755 µM	3.17 µM	15 µM	13.5 µM	26.8 µM	13 µM	26 µM	11.7 µM	25 µM	8.3 µM	21 µM	1.13 µM	4.25 µM	8.49 µM	22.4 µM	1.85 µM	11.5 µM	4.05 µM
COc1ccc2nc3cc(Cl)ccc3c(Nc3cc(C(C)C)c(O)cc3C)c2c1	2.2 µM	6.02 µM	1.55 µM	1.71 µM	3.45 µM	1.82 µM	3.97 µM	2.22 µM	5.08 µM	1.7 µM	3.62 µM	1.49 µM	2.98 µM	3.03 µM	9.48 µM	2.26 µM	6.98 µM	1.59 µM	2.95 µM	3.35 µM
COC1=CC2CCN3Cc4cc5c(cc4C(C1O)C23)OCC5 (centres undefined)	2.17 µM	8.28 µM	4.59 µM	2.1 µM	> 100 µM	2.86 µM	22.6 µM	0.306 µM	2.31 µM	1.31 µM	8.49 µM	5.88 µM	> 46.6 µM	2.48 µM	22.8 µM	1.26 µM	8.19 µM	1.68 µM	> 49.4 µM	> 24.8 µM
COc1c2ccccc2c(O)c2c(=O)ccn(C)c12	1.73 µM	4.08 µM	30.9 µM	3.51 µM	17 µM	8.66 µM	> 61.4 µM	6.13 µM	46.3 µM	3.72 µM	19.6 µM	> 57.5 µM	> 100 µM	11.7 µM	45 µM	9.14 µM	> 67.3 µM	3.13 µM	13.1 µM	> 100 µM
Fc1ccc(C2C3CCOc4c(ccc5ccccc45)C3=NN2c2ccccc2)cc1 (centres undefined)	> 100 µM	> 100 µM	> 100 µM	37.1 µM	> 100 µM	43.8 µM	> 100 µM	88.6 µM	> 100 µM	9.34 µM	> 100 µM	> 100 µM	> 100 µM	> 100 µM	> 100 µM	48.9 µM	> 100 µM	> 86.2 µM	> 100 µM	> 100 µM
CCc1ccc([O-])c(C=NCCCN(C)CCCN=Cc2cc(C)ccc2[O-])c1.[Co+3].[N-]=[N+]=[N-]	50 µg/mL and 33.8 µg/mL	50 µg/mL and 129 µg/mL	20.5 µg/mL and 24.6 µg/mL	50 µg/mL and > 150 µg/mL	50 µg/mL and > 150 µg/mL	15.2 µg/mL	38.5 µg/mL	50 µg/mL	50 µg/mL	29.5 µg/mL and 35.9 µg/mL	50 µg/mL and > 150 µg/mL	50 µg/mL and 84.2 µg/mL	50 µg/mL and > 150 µg/mL	50 µg/mL and 137 µg/mL	50 µg/mL and > 150 µg/mL	50 µg/mL and 106 µg/mL	50 µg/mL and > 150 µg/mL	50 µg/mL and 56.2 µg/mL	50 µg/mL and > 150 µg/mL	50 µg/mL and 55.5 µg/mL
O=C1NC(=N[C@H](CO)c2ccccc2)S/C1=C\c1ccc2ncccc2c1	6.42 µM	> 25 µM	4.44 µM	3.71 µM	24.6 µM	7.71 µM	> 25 µM	4.91 µM	> 24 µM	5.2 µM	> 25 µM	4.61 µM	13.8 µM	4.96 µM	20.1 µM	4.62 µM	18.8 µM	1.68 µM	> 21 µM	> 17.1 µM
CN1CCN(c2ccc(Nc3ncc4cc5n(c4n3)C3(CCCCC3)CNC5=O)nc2)CC1	2.19 µM	15.7 µM	2.42 µM	1.39 µM	10.6 µM	1.34 µM	10.5 µM	0.847 µM	12.6 µM	2.16 µM	13.2 µM	0.67 µM	12.9 µM	0.491 µM	12.2 µM	1.47 µM	16.2 µM	1.81 µM	11 µM	16.4 µM
C[C@H](c1ccccc1)N(CCC(=O)O)C(=O)CCN(C(=O)CCN(C(=O)CCN[C@H](C)c1ccccc1)[C@H](C)c1ccccc1)[C@H](C)c1ccccc1	> 100 µM	> 100 µM	> 100 µM	> 100 µM	> 100 µM	> 100 µM	> 100 µM	> 100 µM	> 100 µM	> 100 µM	> 100 µM	> 100 µM	> 100 µM	> 100 µM	> 100 µM	> 100 µM	> 100 µM	> 100 µM	> 100 µM	> 100 µM
CC(C)COC(c1ccc2c(c1)OCO2)C(C)Br (centres undefined)	–	72.9 µM	–	–	51.5 µM	–	> 100 µM	–	> 100 µM	–	66.1 µM	–	67.5 µM	–	49.3 µM	–	> 100 µM	–	38.7 µM	> 100 µM
CCN1C(=O)N(CC)C2C1NN=c1s/c(=C\c3ccc(OC)cc3)c(=O)n12 (centres undefined)	0.494 µM	> 100 µM	0.295 µM	0.242 µM	> 100 µM	0.353 µM	> 39 µM	0.165 µM	> 100 µM	0.104 µM	> 100 µM	0.653 µM	> 100 µM	0.474 µM	> 100 µM	0.247 µM	> 100 µM	0.188 µM	> 100 µM	> 100 µM
Oc1cccc(-c2nc(-c3ccccc3)[nH]c2-c2ccncc2)c1	12.4 µM	> 25 µM	10.4 µM	11.6 µM	> 25 µM	9.59 µM	> 25 µM	9.08 µM	> 25 µM	7.36 µM	> 20.3 µM	10.1 µM	> 25 µM	16.9 µM	> 25 µM	14.6 µM	> 25 µM	9.91 µM	> 25 µM	> 25 µM
COC(=O)c1ccc2c(C(=Nc3ccc(N(C)C(=O)CN4CCN(C)CC4)cc3)c3ccccc3)c(O)[nH]c2c1	5.23 µM and 6.98 µM	28.4 µM and > 100 µM	0.839 µM and 0.967 µM	2.02 µM and 2.24 µM	4 µM and 4.96 µM	1.91 µM and 2.5 µM	4.11 µM and 6.96 µM	1.58 µM and 2.51 µM	–	2.22 µM and 5.45 µM	> 100 µM	1.2 µM and 0.739 µM	5.76 µM and > 34 µM	1.73 µM and 6.75 µM	–	2.74 µM and 2.79 µM	> 100 µM	1.58 µM and 1.48 µM	3.06 µM and 2.97 µM	22.5 µM and > 100 µM
CCOC(=O)c1cc(-c2ccccc2)[nH]c1N/N=C/c1c(Cl)cccc1Cl	1.33 µM	40.4 µM	0.752 µM	0.909 µM	> 61.7 µM	3.7 µM	25.4 µM	0.874 µM	> 100 µM	0.671 µM	> 100 µM	1.34 µM	> 100 µM	4.99 µM	98 µM	1.92 µM	> 100 µM	0.729 µM	> 36.7 µM	29.3 µM
O=c1[nH]c(SCc2ccccc2[N+](=O)[O-])nc2nc[nH]c12	–	> 100 µM	–	–	> 100 µM	> 100 µM and 40.8 µM	> 100 µM	–	> 100 µM	–	> 100 µM	> 100 µM and 35.1 µM	> 100 µM	–	> 100 µM	–	> 100 µM	–	> 100 µM	> 100 µM
CNCCNc1nc2ccccc2c2c(=O)c3cccc(C)c3sc12	5.13 µM	11.7 µM	1.29 µM	0.917 µM	2.05 µM	1.02 µM	3.61 µM	1.7 µM	7.11 µM	1.13 µM	2.67 µM	0.79 µM	7.12 µM	3.91 µM	10.6 µM	1.82 µM	7.5 µM	0.818 µM	1.57 µM	8.06 µM
CCCCCCSc1nc(COC(=O)NC)c(COC(=O)NC)n1C	–	> 100 µM	–	–	> 100 µM	–	> 100 µM	–	> 100 µM	–	> 100 µM	–	> 100 µM	–	> 100 µM	–	> 100 µM	–	> 100 µM	> 100 µM
